This test deals with T1, human PKCθ full length enzyme (Homo sapiens, UniProt Q04759).
T1 construct: human PKCθ full length enzyme (Panvera Cat# P2996); purchased Panvera P2996
Nature of the test: PKCθ IMAP assay (fluorescence polarization). The conditions noted are these: human PKCθ full length enzyme, IMAP; average value; read-out: IC50 PKCθ IMAP. Format: biochemical. (In general: In fluorescence polarisation assays a small probe gives low polarisation when free and higher when bound to something large.)

These results are taken from patent publication US7781591B2, “Substituted 3-cyanopyridines as protein kinase inhibitors” (Wyeth LLC, priority 2006, dated 2010).

The IC50 is the concentration at which inhibition is half-maximal.

T1 sequence (Q04759 whole entry): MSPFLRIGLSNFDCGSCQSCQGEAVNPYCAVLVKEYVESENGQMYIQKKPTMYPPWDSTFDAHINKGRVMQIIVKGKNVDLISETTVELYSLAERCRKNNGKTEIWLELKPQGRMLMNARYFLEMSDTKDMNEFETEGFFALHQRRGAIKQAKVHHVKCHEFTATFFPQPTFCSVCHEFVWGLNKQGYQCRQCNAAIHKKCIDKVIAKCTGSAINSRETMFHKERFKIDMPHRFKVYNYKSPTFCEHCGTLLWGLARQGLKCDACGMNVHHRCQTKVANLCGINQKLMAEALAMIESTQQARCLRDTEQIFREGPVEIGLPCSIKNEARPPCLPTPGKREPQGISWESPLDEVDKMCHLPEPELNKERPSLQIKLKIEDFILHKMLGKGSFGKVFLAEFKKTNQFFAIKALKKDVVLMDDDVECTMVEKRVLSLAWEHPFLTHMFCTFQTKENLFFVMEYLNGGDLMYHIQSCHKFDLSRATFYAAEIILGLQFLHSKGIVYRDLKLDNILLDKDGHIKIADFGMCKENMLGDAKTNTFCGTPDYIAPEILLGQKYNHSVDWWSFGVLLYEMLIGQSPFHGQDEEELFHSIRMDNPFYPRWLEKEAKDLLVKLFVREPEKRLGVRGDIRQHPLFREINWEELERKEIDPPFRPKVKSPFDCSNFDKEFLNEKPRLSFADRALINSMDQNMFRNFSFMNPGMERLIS

Turning to `N#Cc1cncc(-c2cc3cc(CNCc4cccnc4)ccc3s2)c1Nc1cccc2[nH]ccc12` [Compound 289, 4-(1H-indol-4-ylamino)-5-(5-{[(pyridin-3-ylmethyl)amino]methyl}-1-benzothien-2-yl)nicotinonitrile], the IC50 was determined as 4 nM.

Take `N#Cc1cncc(-c2cc3cc(CNCc4ccncc4)ccc3s2)c1Nc1cccc2[nH]ccc12` [Compound 290, 4-(1H-indol-4-ylamino)-5-(5-{[(pyridin-4-ylmethyl)amino]methyl}-1-benzothien-2-yl)nicotinonitrile]: the IC50 worked out at 4 nM.

With `CN(C)c1ccc(-c2cncc(C#N)c2Nc2cccnc2)cc1` [Compound 291, 5-[4-(dimethylamino)phenyl]-4-(pyridin-3-ylamino)nicotinonitrile], the IC50 was 4860 nM.

As to `CN(C)c1ccc(-c2cncc(C#N)c2Nc2ccc3[nH]ncc3c2)cc1` [Compound 292, 5-[4-(dimethylamino)phenyl]-4-(1H-indazol-5-ylamino)nicotinonitrile], the IC50 turned out to be 13200 nM.

Take `CN(C)c1ccc(-c2cncc(C#N)c2Nc2ccc3cn[nH]c3c2)cc1` [Compound 293, 5-[4-(dimethylamino)phenyl]-4-(1H-indazol-6-ylamino)nicotinonitrile]: the IC50 was 36000 nM.

In the case of `CN(C)c1ccc(-c2cncc(C#N)c2Nc2cc(O)[nH]n2)cc1` [Compound 294, 5-[4-(dimethylamino)phenyl]-4-[(5-hydroxy-1H-pyrazol-3-yl)amino]nicotinonitrile], the IC50 was 33400 nM.

With `COc1cccc(-c2cncc(C#N)c2Nc2ccc3[nH]ncc3c2)c1` [Compound 295, 4-(1H-indazol-5-ylamino)-5-(3-methoxyphenyl)nicotinonitrile], the IC50 was 2950 nM.

`COc1cccc(-c2cncc(C#N)c2Nc2ccc3cn[nH]c3c2)c1` [Compound 296, 4-(1H-indazol-6-ylamino)-5-(3-methoxyphenyl)nicotinonitrile]: the IC50 is 16200 nM.

Regarding `Cc1c(Nc2c(C#N)cncc2-c2cccc(Br)c2)ccc2[nH]ccc12` [Compound 298, 5-(3-bromophenyl)-4-[(4-methyl-1H-indol-5-yl)amino]nicotinonitrile], the IC50 came to 4 nM.

On to `COc1ccc(-c2cncc(C#N)c2Nc2cccc3[nH]ccc23)cc1OCCN1CCOCC1` [Compound 299, 4-(1H-indol-4-ylamino)-5-[4-methoxy-3-(2-morpholin-4-ylethoxy)phenyl]nicotinonitrile], for which the IC50 worked out at 30 nM.

Take `COc1ccc(-c2cncc(C#N)c2Nc2cccc3[nH]ccc23)cc1OCCN1CCN(C)CC1` [Compound 300, 4-(1H-indol-4-ylamino)-5-{4-methoxy-3-[2-(4-methylpiperazin-1-yl)ethoxy]phenyl}nicotinonitrile]: the IC50 stood at 20 nM.

Consider `COc1ccc(-c2cncc(C#N)c2Nc2cccc3[nH]ccc23)cc1OCCN(C)C` [Compound 301, 5-{3-[2-(dimethylamino)ethoxy]-4-methoxyphenyl}-4-(1H-indol-4-ylamino)nicotinonitrile], for which the IC50 is 50 nM.

As for `COc1ccc(-c2cncc(C#N)c2Nc2cccc3[nH]ccc23)cc1OCCN1CCC(O)CC1` [Compound 302, 5-{3-[2-(4-hydroxypiperidin-1-yl)ethoxy]-4-methoxyphenyl}-4-(1H-indol-4-ylamino)nicotinonitrile], the IC50 was found to be 30 nM.

Consider `COc1ccc(-c2cncc(C#N)c2Nc2cccc3[nH]ccc23)cc1OCCCl` [Compound 303, 5-[3-(2-chloroethoxy)-4-methoxyphenyl]-4-(1H-indol-4-ylamino)nicotinonitrile], for which the IC50 worked out at 40 nM.

In the case of `Cc1c(Nc2c(C#N)cncc2-c2cccc(-c3cccs3)c2)ccc2[nH]ccc12` [Compound 304, 4-[(4-methyl-1H-indol-5-yl)amino]-5-[3-(2-thienyl)phenyl]nicotinonitrile], the IC50 turned out to be 110 nM.

For the compound `CCc1c(Nc2c(C#N)cncc2-c2ccc(OC)c(OC)c2)ccc2[nH]ccc12` [Compound 305, 5-(3,4-dimethoxyphenyl)-4-[(4-ethyl-1H-indol-5-yl)amino]nicotinonitrile], the half-inhibitory concentration (IC50) came out at 60 nM.

In the case of `Cc1c(Nc2c(C#N)cncc2-c2cccc(-c3ccc(C=O)s3)c2)ccc2[nH]ccc12` [Compound 306, 5-[3-(5-formyl-2-thienyl)phenyl]-4-[(4-methyl-1H-indol-5-yl)amino]nicotinonitrile], the IC50 worked out at 60 nM.

For `N#Cc1cncc(-c2cccc(-c3ccc(C(=O)NCCCCO)cc3)c2)c1Nc1cccc2[nH]ccc12` [Compound 308, 3′-[5-cyano-4-(1H-indol-4-ylamino)pyridin-3-yl]-N-(4-hydroxybutyl)biphenyl-4-carboxamide], the IC50 amounted to 30 nM.

As for `Cc1c(Nc2c(C#N)cncc2-c2cccc(-c3ccc(C(=O)NCCCCO)cc3)c2)ccc2[nH]ccc12` [Compound 309, 3′-{5-cyano-4-[(4-methyl-1H-indol-5-yl)amino]pyridin-3-yl}-N-(4-hydroxybutyl)biphenyl-4-carboxamide], the IC50 stood at 120 nM.

Turning to `N#Cc1cncc(-c2cccc(C(F)(F)F)c2)c1Nc1cccc2[nH]ccc12` [Compound 310, 4-(1H-indol-4-ylamino)-5-[3-(trifluoromethyl)phenyl]nicotinonitrile], the IC50 was found to be 20 nM.

In the case of `N#Cc1cccc(-c2cncc(C#N)c2Nc2cccc3[nH]ccc23)c1` [Compound 311, 5-(3-cyanophenyl)-4-(1H-indol-4-ylamino)nicotinonitrile], the IC50 was determined as 20 nM.

For `CN(C)C(=O)c1cccc(-c2cncc(C#N)c2Nc2cccc3[nH]ccc23)c1` [Compound 312, 3-[5-cyano-4-(1H-indol-4-ylamino)pyridin-3-yl]-N,N-dimethylbenzamide], the IC50 was 600 nM.

Consider `CN(C)S(=O)(=O)c1cccc(-c2cncc(C#N)c2Nc2cccc3[nH]ccc23)c1` [Compound 313, 3-[5-cyano-4-(1H-indol-4-ylamino)pyridin-3-yl]-N,N-dimethylbenzenesulfonamide], for which the IC50 was 20 nM.

`N#Cc1cncc(-c2cccc(C(N)=O)c2)c1Nc1cccc2[nH]ccc12` [Compound 314, 3-[5-cyano-4-(1H-indol-4-ylamino)pyridin-3-yl]benzamide]: the IC50 stood at 100 nM.

As to `CN(C)Cc1ccc(-c2cccc(-c3cncc(C#N)c3Nc3cccc4[nH]ccc34)c2)s1` [Compound 315, 5-(3-{5-[(dimethylamino)methyl]-2-thienyl}phenyl)-4-(1H-indol-4-ylamino)nicotinonitrile], the IC50 amounted to 10 nM.

On to `CN(C)S(=O)(=O)c1ccccc1-c1cncc(C#N)c1Nc1cccc2[nH]ccc12` [Compound 316, 2-[5-cyano-4-(1H-indol-4-ylamino)pyridin-3-yl]-N,N-dimethylbenzenesulfonamide], for which the IC50 was determined as 1350 nM.

On to `CS(=O)(=O)Nc1ccc(-c2cncc(C#N)c2Nc2cccc3[nH]ccc23)cc1` [Compound 317, N-{4-[5-cyano-4-(1H-indol-4-ylamino)pyridin-3-yl]phenyl}methanesulfonamide], for which the IC50 was 20 nM.

For the compound `N#Cc1cncc(-c2cc3ccccc3o2)c1Nc1cccc2[nH]ccc12` [Compound 318, 5-(1-benzofuran-2-yl)-4-(1H-indol-4-ylamino)nicotinonitrile], the IC50 came to 10 nM.

In the case of `N#Cc1cncc(-c2cccc3c2oc2ccccc23)c1Nc1cccc2[nH]ccc12` [Compound 319, 5-dibenzo[b,d]furan-4-yl-4-(1H-indol-4-ylamino)nicotinonitrile], the IC50 was determined as 60 nM.
